Laboratory results from US8841413B2, “Antidiabetic compounds” (Cadila Healthcare Limited, priority 2006, dated 2014).

Experiments:
C57BL/6J mice = assay: Acute single dose 120-min time-course experiment, in vivo glucose reduction in C57BL/6J mice; set-up: unit not given here; details: male C57BL/6J mice, Mean ± SEM
Experimental: All the animal experiments were carried out according to the internationally valid guidelines following approval by the ‘Zydus Research Center animal ethical committee’. […] Two days prior to the study, the animals were randomised and divided into 5 groups (n=6), based upon their fed glucose levels. On the day of experiment, food was withdrawn from all the cages, water was given ad-libitum and were kept for overnight fasting. Vehicle (normal saline)/test/standard compounds were administered intraperitoneally (i.p.) or orally, on a body weight basis. […] Blood samples were centrifuged and the separated serum was immediately subjected for the glucose estimation. Serum for insulin estimation was stored at −70° C. until used for the insulin estimation. The glucose estimation was carried out with DPEC-GOD/POD method (Ranbaxy Fine Chemicals Limited, Diagnostic division, India), using Spectramax-190, in 96-microwell plate reader (Molecular devices Corporation, Sunnyvale, Calif.). […] The AUC and BCAUC obtained from graphs were analyzed for one way ANOVA, followed by Dunnett's post test, using Graph Pad prism software. Furthermore, the insulin estimation was carried out using rat/mouse insulin ELISA kit (Linco research, Mo. USA).

Human GLP-1 receptor = molecular target: T1, Human GLP-1 receptor (Homo sapiens, UniProt P43220); type: cell-based; details: in vitro, FIG. 4
T1 construct: The full-length cDNA was cloned in pcDNA3.1(+); expressed in transfected cells
T1 sequence (P43220 24-463): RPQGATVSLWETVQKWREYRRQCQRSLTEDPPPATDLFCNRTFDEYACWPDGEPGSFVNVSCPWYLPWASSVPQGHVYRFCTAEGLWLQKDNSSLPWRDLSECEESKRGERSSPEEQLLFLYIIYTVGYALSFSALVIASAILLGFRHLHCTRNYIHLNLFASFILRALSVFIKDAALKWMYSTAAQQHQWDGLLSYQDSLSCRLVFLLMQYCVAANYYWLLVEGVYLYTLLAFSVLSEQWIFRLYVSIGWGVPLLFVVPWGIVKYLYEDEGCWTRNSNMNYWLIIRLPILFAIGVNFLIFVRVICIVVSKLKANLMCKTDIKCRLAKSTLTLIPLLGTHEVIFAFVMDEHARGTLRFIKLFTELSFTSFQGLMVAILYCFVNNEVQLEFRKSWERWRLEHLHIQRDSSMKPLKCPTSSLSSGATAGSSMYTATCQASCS
Experimental: The novel peptidomimetics were screened for Human GLP-1 receptor (HGLP-1 R) agonist activity (in vitro), using the cAMP cell-based assay, in stably transfected CHO/human GLP1R cells. […] CHO cells were grown in Ham's F12 medium containing L-Glutamine (2 mM), HEPES (25 mM), NaHCO3 (1.1 g/L) and supplemented with NewBorn Calf Serum (NBCS; 10%), Penicillin (50 U/ml (v/v)) and Streptomycin (50 ug/ml (v/v)). Cells were split every 3 days 1:8.
The cDNA encoding the human GLP-1 receptor was isolated by RT-PCR according to standard protocol. The full-length cDNA was cloned in pcDNA3.1(+). […] Clones expressing the receptor were generated by G418 (800 μg/ml active, Sigma) selection. The stable clones were thereafter maintained at 500 ug/ml (G418). The selected clone was used between passages 9-25 for cAMP assays.
The trypsin was inactivated using Ham's F12 medium containing 10% NBCS and the cells were suspended in 2 ml of complete medium. […] The medium was aspirated off from the 12 well plate and the cells were washed once using Ham's F12 (plain). […] The cells were incubated with the test compounds for 30 min in humidified atmosphere and 37° C. After the incubation, the medium was removed and cells were washed once with plain Ham's F12. Subsequently, the cells were lysed by adding 500 ul of ice cold 0.1 N HCl to each well and shaking for 30 minutes at 200 rpm. […] The total cAMP was estimated from the sample according to the manufacturer's protocol using Cyclic AMP immunoassay kit (R&D systems, Minneapolis. MN). The remaining supernatant is used to determine the protein concentration using micro BCA (Sigma). Data is calculated as percent of control (Vehicle: water) and expressed as Mean±SD.

SMILES	blood glucose level (C57BL/6J mice; 10 nM/kg, i.p, 0 min)	blood glucose level (C57BL/6J mice; 10 nM/kg, i.p, 30 min)	blood glucose level (C57BL/6J mice; 10 nM/kg, i.p, 60 min)	blood glucose level (C57BL/6J mice; 10 nM/kg, i.p, 120 min)	blood glucose level (C57BL/6J mice; 2 μM/kg, oral, 0 min)	blood glucose level (C57BL/6J mice; 2 μM/kg, oral, 30 min)	blood glucose level (C57BL/6J mice; 2 μM/kg, oral, 60 min)	blood glucose level (C57BL/6J mice; 2 μM/kg, oral, 120 min)	blood glucose level (C57BL/6J mice; 20 nM/kg, i.p, 0 min)	blood glucose level (C57BL/6J mice; 20 nM/kg, i.p, 30 min)	blood glucose level (C57BL/6J mice; 20 nM/kg, i.p, 60 min)	blood glucose level (C57BL/6J mice; 20 nM/kg, i.p, 120 min)	blood glucose level (C57BL/6J mice; 30 nM/kg, i.p, 0 min)	blood glucose level (C57BL/6J mice; 30 nM/kg, i.p, 30 min)	blood glucose level (C57BL/6J mice; 30 nM/kg, i.p, 60 min)	blood glucose level (C57BL/6J mice; 30 nM/kg, i.p, 120 min)	GLP-1 receptor agonistic activity (in words) (Human GLP-1 receptor)
CCc1cc(OC)ccc1-c1ccc(CC(NC(=O)[C@H](CC(=O)O)NC(=O)[C@H](CO)NC(=O)[C@@H](NC(=O)C(C)(Cc2ccccc2F)NC(=O)[C@@H](NC(=O)CNC(=O)[C@H](CCC(N)=O)NC(=O)C2(NC(=O)[C@@H](N)Cc3c[nH]cn3)CC2)[C@@H](C)O)[C@@H](C)O)C(=O)NC(Cc2ccc(-c3ccccc3C(F)(F)F)cc2)C(N)=O)cc1 (single isomer, unassigned) [Seq. ID. No. 36, H-(ACP)-QGT-(α-Me-2F-Phe)-TSD-Bip(OMe)-Bip(2CF3)]	180 ± 2.8	110 ± 3.6	112 ± 2.3	112 ± 1.6	183 ± 2.3	119 ± 3.0	112 ± 4.3	109 ± 2.6	–	–	–	–	–	–	–	–	–
CCc1cc(OC)ccc1-c1ccc(CC(NC(=O)[C@H](CC(=O)O)NC(=O)[C@H](CO)NC(=O)[C@@H](NC(=O)C(C)(Cc2ccccc2F)NC(=O)[C@@H](NC(=O)CNC(=O)[C@H](CCC(N)=O)NC(=O)C2(NC(=O)[C@@H](N)Cc3c[nH]cn3)CC2)[C@@H](C)O)[C@@H](C)O)C(=O)NC(Cc2ccc(-c3ccccc3F)cc2)C(N)=O)cc1 (single isomer, unassigned) [Seq. ID. No. 35, H-(ACP)-QGT-(α-Me-2F-Phe)-TSD-Bip(OMe)-Bip(2F)]	182 ± 4.1	112 ± 3.1	113 ± 2.6	111 ± 1.8	183 ± 2.1	118 ± 3.4	113 ± 4.6	111 ± 2.8	–	–	–	–	–	–	–	–	–
CCc1cc(OC)ccc1-c1ccc(CC(NC(=O)[C@H](CC(=O)O)NC(=O)[C@H](CO)NC(=O)[C@@H](NC(=O)C(C)(Cc2ccccc2F)NC(=O)[C@@H](NC(=O)CNC(=O)[C@H](CCC(N)=O)NC(=O)C(C)(C)NC(=O)[C@@H](N)Cc2c[nH]cn2)[C@@H](C)O)[C@@H](C)O)C(=O)NC(Cc2ccc(-c3ccccc3F)cc2)C(N)=O)cc1 (single isomer, unassigned) [Seq. ID. No. 31, H-Aib-QGT-(α-Me-2F-Phe)-TSD-Bip(OMe)-Bip(2F)]	183 ± 2.2	113 ± 2.8	113 ± 2.9	114 ± 2.0	185 ± 2.3	115 ± 3.8	113 ± 4.9	109 ± 2.2	–	–	–	–	–	–	–	–	–
CCc1cc(OC)ccc1-c1ccc(CC(NC(=O)[C@H](CC(=O)O)NC(=O)[C@H](CO)NC(=O)[C@@H](NC(=O)C(C)(Cc2ccccc2F)NC(=O)[C@@H](NC(=O)CNC(=O)[C@H](CCC(N)=O)NC(=O)C2(NC(=O)[C@@H](N)Cc3c[nH]cn3)CC2)[C@@H](C)O)[C@@H](C)O)C(=O)NC(Cc2ccc(-c3ccccc3C)nc2)C(N)=O)cc1 (single isomer, unassigned) [Seq. ID. No. 34, H-(ACP)-QGT-(α-Me-2F-Phe)-TSD-Bip(OMe)-Bip(Pyr)]	180 ± 4.2	113 ± 3.2	112 ± 2.4	110 ± 1.9	184 ± 2.2	118 ± 3.3	112 ± 4.4	110 ± 2.9	–	–	–	–	–	–	–	–	–
CCc1cc(OC)ccc1-c1ccc(CC(NC(=O)[C@H](CC(=O)O)NC(=O)[C@H](CO)NC(=O)[C@@H](NC(=O)C(C)(Cc2ccccc2F)NC(=O)[C@@H](NC(=O)CNC(=O)[C@H](CCC(N)=O)NC(=O)[C@H](C)NC(=O)[C@@H](N)Cc2c[nH]cn2)[C@@H](C)O)[C@@H](C)O)C(=O)NC(Cc2ccc(-c3ccccc3C(F)(F)F)cc2)C(N)=O)cc1 (single isomer, unassigned) [Seq. ID. No. 28, HAQGT-(α-Me-2F-Phe)-TSD-Bip(OMe)-Bip(2CF3)]	–	–	–	–	–	–	–	–	182 ± 2.1	121 ± 2.9	130 ± 3.1	138 ± 2.4	–	–	–	–	–
CCc1cc(OC)ccc1-c1ccc(CC(NC(=O)[C@H](CC(=O)O)NC(=O)[C@H](CO)NC(=O)[C@@H](NC(=O)[C@H](Cc2ccccc2)NC(=O)[C@@H](NC(=O)CNC(=O)[C@H](CCC(N)=O)NC(=O)C(C)(C)NC(=O)[C@@H](N)Cc2c[nH]cn2)[C@@H](C)O)[C@@H](C)O)C(=O)NC(Cc2ccc(-c3ccccc3C(F)(F)F)cc2)C(N)=O)cc1 (single isomer, unassigned) [Seq. ID. No. 16, H-Aib-QGTFTSD-Bip(OMe)-Bip(2CF3)]	–	–	–	–	–	–	–	–	–	–	–	–	183 ± 4.9	117 ± 2.5	116 ± 2.3	119 ± 2.0	–
CCc1cc(OC)ccc1-c1ccc(CC(NC(=O)[C@H](CC(=O)O)NC(=O)[C@H](CO)NC(=O)[C@@H](NC(=O)[C@H](Cc2ccccc2)NC(=O)[C@@H](NC(=O)CNC(=O)[C@H](CCC(N)=O)NC(=O)[C@H](CO)NC(=O)[C@@H](N)Cc2c[nH]cn2)[C@@H](C)O)[C@@H](C)O)C(=O)NC(Cc2ccc(-c3ccccc3C)cc2)C(N)=O)cc1 (single isomer, unassigned) [Seq. ID. No. 5]	–	–	–	–	–	–	–	–	–	–	–	–	–	–	–	–	GLP-1 receptor agonistic activity
CCc1cc(OC)ccc1-c1ccc(CC(NC(=O)[C@H](CC(=O)O)NC(=O)[C@H](CO)NC(=O)[C@@H](NC(=O)C(C)(Cc2ccccc2F)NC(=O)[C@@H](NC(=O)CNC(=O)[C@H](CCC(N)=O)NC(=O)C(C)(C)NC(=O)[C@@H](N)Cc2c[nH]cn2)[C@@H](C)O)[C@@H](C)O)C(=O)NC(Cc2ccc(-c3ccccc3C)nc2)C(N)=O)cc1 (single isomer, unassigned) [Seq. ID. No. 30, H-Aib-QGT-(α-Me-2F-Phe)-TSD-Bip(OMe)-Bip(Pyr)]	182 ± 2.1	111 ± 2.1	112 ± 2.8	113 ± 2.2	183 ± 2.4	116 ± 3.1	112 ± 4.8	110 ± 2.5	–	–	–	–	–	–	–	–	–
CCc1cc(OC)ccc1-c1ccc(CC(NC(=O)[C@H](CC(=O)O)NC(=O)[C@H](CO)NC(=O)[C@@H](NC(=O)C(C)(Cc2ccccc2F)NC(=O)[C@@H](NC(=O)CNC(=O)[C@H](CCC(N)=O)NC(=O)C(C)(C)NC(=O)[C@@H](N)Cc2c[nH]cn2)[C@@H](C)O)[C@@H](C)O)C(=O)NC(Cc2ccc(-c3ccccc3C)cc2)C(N)=O)cc1 (single isomer, unassigned) [Seq. ID. No. 29, H-Aib-QGT-(α-Me-2F-Phe)-TSD-Bip(OMe)-Bip(2Me)]	180 ± 2.5	110 ± 2.6	111 ± 3.2	112 ± 2.3	184 ± 2.5	115 ± 3.6	113 ± 4.2	110 ± 2.4	–	–	–	–	–	–	–	–	–
